# Data from PMC8153216 (Chemical Science, 2021).
# Test system: Coxsackievirus B3 (CVB3)
# Test: Anti Coxsackie B3 activity assay
# Assay type: cell-based, Coxsackie viruse B3 (Nancy strain)
# Settings: CVB3 in Vero cells
row,SMILES,SI (TC50/IC50)
1,Cc1cc(CCCOc2c(C)cc(-c3noc(C(F)(F)F)n3)cc2C)on1 [Pleconaril],14045.1
2,NC(=O)c1ncn([C@@H]2O[C@H](CO)[C@@H](O)[C@H]2O)n1 [Ribavirin],5.2
